Test results as given in patent publication US20260137700A1, “PHARMACEUTICAL COMBINATION OF PRMT5 INHIBITOR AND DNA DAMAGE-INDUCING SUBSTANCE” (SK Biopharmaceuticals Co., Ltd., priority 2022, published 2026).

Legend:
[1] = tested on: human pancreatic cancer cells Mia PaCa-2; experiment: Subcutaneous xenograft mouse model of Mia PaCa-2 pancreatic cancer cells, tumor growth inhibition; format: in vivo; conditions: day 24
Procedure: For in vivo efficacy study in a subcutaneous xenograft mouse model of human pancreatic cancer cells Mia PaCa-2, co-administration of compound-87 as a PRMT5 inhibitor according to an example of the present invention and Gemcitabine as an anti-metabolite of a chemotherapeutic agent, was performed. To produce a pancreatic cancer xenograft model, 5 million Mia PaCa-2 cells were injected subcutaneously into the right flank of female nude mice, and tumor growth was monitored.
To evaluate the anticancer effect, mice were divided into six groups when the tumor volume reached approximately 150 mm^3 on average. […] The solvent-treated group (vehicle group) or the compound-87 treatment group was administered orally on a 3-day administration/4-day non-administration schedule, and gemcitabine was administered intraperitoneally twice a week for 24 days (Day 0-Day 23). All mice were euthanized on Day 24, 24 hours after the last administration.

[2] = tested on: cancer cell lines of Table 2 (A549, A549/CR, A549/PR, CAPAN-1, NCI-H1048, MDA-MB-231, Mia PaCa-2, SNU-324, OVCAR3, PA-1, PANC-1, U-87 MG); experiment: Cell viability assay (WST) with combination synergy analysis (Bliss score); format: cell-based, human; conditions: combination with various DNA damage inducers, FIGS. 1 to 25; culture ended on days 7 to 9
Procedure: Most cell lines were obtained from the American Type Culture Collection (ATCC) or the Korean Cell Line Bank (KCLB). Combination experiments in cisplatin-resistant and paclitaxel-resistant cell lines were performed at the Asan Preclinical Evaluation center for cancer therapeutiX of Asan Medical Center, Seoul. All cell lines were maintained in appropriate growth medium for the cell line in 100-pi dishes oRT75 (75 cm2) flasks, cultured at 37° C. with 5% CO2, and passaged every 3-4 days. Growth medium conditions and cell line information are listed in Table 2, and the cells were counted using Countess (Invitrogen) to obtain the number of viable cells. Mutation and HRD status by cell type are described in Table 3.
The next day, compound-87 was diluted 1/2 to 1/4 to a concentration of 20 μM to 0.002 μM and treated at a set concentration range, and the co-administered drug was diluted 1/2 to 1/3 to a concentration of 100 μM to 0.00046 μM and treated at a 1:1 (v/v) ratio. Finally, the treatment ratio of compound-87 and the co-administered substance was between 1:20000 and 1:0.00015, and in clinical practice, compound-87: drug to be co-administered can be treated at a ratio of 1:10000 to 1:0.0001.
PANC-1 (wild-type BRCA1/BRCA2) pancreatic cancer cells were treated with compound-87 at concentrations of […], and E7016, a PARP inhibitor as a co-administered agent at concentration of 0.078, 0.156, 0.313, 0.625, 1.25, 2.5, 5, or 10 μM (FIG. 25). Cell culture was terminated on days 7 to 9, and cell viability and synergistic effect were evaluated for each combination of concentrations.
Cell viability was measured by a colorimetric assay using water-soluble tetrazolium salt (WST). […]
Results are normalized to DMSO-treated groups as 100% and expressed as the percent of viable cells upon compound addition. […]
The synergy of each compound was analyzed using Combenefit software (Cambridge Research UK, Cambridge Institute, University of Cambridge, United Kingdom), and synergy was evaluated by using Blliss (Ref: Di Veroli et al., 2016, Bioinformatics 32(18):2866-2868). […]

CN1CCC(Oc2ccc3c(c2)OCCN(C[C@H](O)CN2CCc4ccccc4C2)C3=O)CC1 [Compound-87, 4-[(2R)-3-(3,4-dihydro-1H-isoquinolin-2-yl)-2-hydroxy-propyl]-8-[(1-methyl-4-piperidyl)oxy]-2,3-dihydro-1,4-benzoxazepin-5-one]
tumor growth inhibition rate ([1]; compound-87 25 mg/kg combined with gemcitabine 60 mg/kg i.p. twice a week): 67.7%
tumor growth inhibition rate ([1]; compound-87 25 mg/kg monotherapy, oral, 3 days on/4 off): 42.6%
tumor growth inhibition rate ([1]; compound-87 50 mg/kg combined with gemcitabine 60 mg/kg i.p. twice a week): 77.0%
tumor growth inhibition rate ([1]; compound-87 50 mg/kg monotherapy, oral, 3 days on/4 off): 56.0%
inhibition of cell viability, combination treatment compared to single agent [2]: enhanced inhibition effects of cell viability
